Laboratory results as given in US7598399B2, “Methods for synthesis of 3-amino-1-arylpropyl indoles” (Roche Palo Alto LLC, priority 2005, dated 2009).

melting point: 134 to 137 °C
Compound: CNCC[C@@H](c1ccccc1)c1c[nH]c2cccc(OC)c12 [[(S)-3-(4-Methoxy-1H-indol-3-yl)-3-phenyl-propyl]-methyl-amine]
